Source: the CheMixHub viscosity set

Experiment: xn = mol fraction of the nth substance listed

c1ccc2ncccc2c1 + Oc1ccccc1
Settings	viscosity [mPa·s]
293.25 K, 101 kPa, x2 = 0.101	4.595
293.25 K, 101 kPa, x2 = 0.1895	5.725
293.25 K, 101 kPa, x2 = 0.2876	7.85
293.25 K, 101 kPa, x2 = 0.3677	10.58
293.25 K, 101 kPa, x2 = 0.4518	15.03
293.25 K, 101 kPa, x2 = 0.5297	20.31
293.25 K, 101 kPa, x2 = 0.6094	24.52
293.25 K, 101 kPa, x2 = 0.6758	25.29
293.25 K, 101 kPa, x2 = 0.7465	23.27
293.25 K, 101 kPa, x2 = 0.8203	19.41
293.25 K, 101 kPa, x2 = 0.8731	16.6
293.25 K, 101 kPa, x2 = 0.9409	13.37
298 K, 101.3 kPa, x1 = 0.1054	12.7
298 K, 101.3 kPa, x1 = 0.1999	17.29
298 K, 101.3 kPa, x1 = 0.3001	20.99
298 K, 101.3 kPa, x1 = 0.4004	19.77
298 K, 101.3 kPa, x1 = 0.4996	14.31
298 K, 101.3 kPa, x1 = 0.5998	10.23
298 K, 101.3 kPa, x1 = 0.6997	7.295
298 K, 101.3 kPa, x1 = 0.7997	5.58
298 K, 101.3 kPa, x1 = 0.9023	4.054
303 K, 101.3 kPa, x1 = 0.1054	10.2
303 K, 101.3 kPa, x1 = 0.1999	13.09
303 K, 101.3 kPa, x1 = 0.3001	15.72
303 K, 101.3 kPa, x1 = 0.4004	14.98
303 K, 101.3 kPa, x1 = 0.4996	11.03
303 K, 101.3 kPa, x1 = 0.5998	8.24
303 K, 101.3 kPa, x1 = 0.6997	6.11
303 K, 101.3 kPa, x1 = 0.7997	4.797
303 K, 101.3 kPa, x1 = 0.9023	3.537
303.05 K, 101 kPa, x2 = 0.104	3.645
303.05 K, 101 kPa, x2 = 0.194	4.495
303.05 K, 101 kPa, x2 = 0.2786	5.605
303.05 K, 101 kPa, x2 = 0.3683	7.425
303.05 K, 101 kPa, x2 = 0.4478	9.65
303.05 K, 101 kPa, x2 = 0.5251	12.21
303.05 K, 101 kPa, x2 = 0.6009	14.36
303.05 K, 101 kPa, x2 = 0.672	14.8
303.05 K, 101 kPa, x2 = 0.744	13.44
303.05 K, 101 kPa, x2 = 0.8109	11.77
303.05 K, 101 kPa, x2 = 0.8741	10.1
303.05 K, 101 kPa, x2 = 0.9388	8.44
308 K, 101.3 kPa, x1 = 0.1054	8.195
308 K, 101.3 kPa, x1 = 0.1999	10.47
308 K, 101.3 kPa, x1 = 0.3001	12.4
308 K, 101.3 kPa, x1 = 0.4004	11.87
308 K, 101.3 kPa, x1 = 0.4996	8.92
308 K, 101.3 kPa, x1 = 0.5998	6.902
308 K, 101.3 kPa, x1 = 0.6997	5.266
308 K, 101.3 kPa, x1 = 0.7997	4.143
308 K, 101.3 kPa, x1 = 0.9023	3.095
313 K, 101.3 kPa, x1 = 0.1054	6.728
313 K, 101.3 kPa, x1 = 0.1999	8.655
313 K, 101.3 kPa, x1 = 0.3001	10.08
313 K, 101.3 kPa, x1 = 0.4004	9.694
313 K, 101.3 kPa, x1 = 0.4996	7.31
313 K, 101.3 kPa, x1 = 0.5998	5.796
313 K, 101.3 kPa, x1 = 0.6997	4.553
313 K, 101.3 kPa, x1 = 0.7997	3.608
313 K, 101.3 kPa, x1 = 0.9023	2.718
313.15 K, 101 kPa, x2 = 0.104	2.885
313.15 K, 101 kPa, x2 = 0.194	3.455
313.15 K, 101 kPa, x2 = 0.2786	4.195
313.15 K, 101 kPa, x2 = 0.3683	5.335
313.15 K, 101 kPa, x2 = 0.4478	6.6
313.15 K, 101 kPa, x2 = 0.5251	7.95
313.15 K, 101 kPa, x2 = 0.6009	8.87
313.15 K, 101 kPa, x2 = 0.672	9.04
313.15 K, 101 kPa, x2 = 0.744	8.39
313.15 K, 101 kPa, x2 = 0.8109	7.48
313.15 K, 101 kPa, x2 = 0.8741	6.56
313.15 K, 101 kPa, x2 = 0.9388	5.525
318 K, 101.3 kPa, x1 = 0.1054	5.655
318 K, 101.3 kPa, x1 = 0.1999	7.159
318 K, 101.3 kPa, x1 = 0.3001	8.328
318 K, 101.3 kPa, x1 = 0.4004	8.054
318 K, 101.3 kPa, x1 = 0.4996	5.886
318 K, 101.3 kPa, x1 = 0.5998	4.902
318 K, 101.3 kPa, x1 = 0.6997	3.996
318 K, 101.3 kPa, x1 = 0.7997	3.172
318 K, 101.3 kPa, x1 = 0.9023	2.416

c1ccc2ncccc2c1 + Oc1ccccc1Cl
Settings	viscosity [mPa·s]
293.15 K, 101 kPa, x2 = 0.1686	6.62
293.15 K, 101 kPa, x2 = 0.3263	13
293.15 K, 101 kPa, x2 = 0.4251	23.62
293.15 K, 101 kPa, x2 = 0.4893	33.45
293.15 K, 101 kPa, x2 = 0.5043	35.1
293.15 K, 101 kPa, x2 = 0.534	36.9
293.15 K, 101 kPa, x2 = 0.5506	37.25
293.15 K, 101 kPa, x2 = 0.5803	36.62
293.15 K, 101 kPa, x2 = 0.6353	31.62
293.15 K, 101 kPa, x2 = 0.7227	21.85
293.15 K, 101 kPa, x2 = 0.8671	9.95
298 K, 101.3 kPa, x1 = 0.0761	4.871
298 K, 101.3 kPa, x1 = 0.1549	7.882
298 K, 101.3 kPa, x1 = 0.2343	11.68
298 K, 101.3 kPa, x1 = 0.3348	19.63
298 K, 101.3 kPa, x1 = 0.4286	26.3
298 K, 101.3 kPa, x1 = 0.5274	21.74
298 K, 101.3 kPa, x1 = 0.6364	12.94
298 K, 101.3 kPa, x1 = 0.7447	8.205
298 K, 101.3 kPa, x1 = 0.8898	4.628
303 K, 101.3 kPa, x1 = 0.0761	4.063
303 K, 101.3 kPa, x1 = 0.1549	6.073
303 K, 101.3 kPa, x1 = 0.2343	9.042
303 K, 101.3 kPa, x1 = 0.3348	14.39
303 K, 101.3 kPa, x1 = 0.4286	18.2
303 K, 101.3 kPa, x1 = 0.5274	16.12
303 K, 101.3 kPa, x1 = 0.6364	10.29
303 K, 101.3 kPa, x1 = 0.7447	6.433
303 K, 101.3 kPa, x1 = 0.8898	4.058
303.15 K, 101 kPa, x2 = 0.1686	4.87
303.15 K, 101 kPa, x2 = 0.3263	9.11
303.15 K, 101 kPa, x2 = 0.4251	14.4
303.15 K, 101 kPa, x2 = 0.4893	17.92
303.15 K, 101 kPa, x2 = 0.5043	18.4
303.15 K, 101 kPa, x2 = 0.534	19
303.15 K, 101 kPa, x2 = 0.5506	19.01
303.15 K, 101 kPa, x2 = 0.5803	18.88
303.15 K, 101 kPa, x2 = 0.6353	17.42
303.15 K, 101 kPa, x2 = 0.7227	12.82
303.15 K, 101 kPa, x2 = 0.8671	6.41
308 K, 101.3 kPa, x1 = 0.0761	3.469
308 K, 101.3 kPa, x1 = 0.1549	5.006
308 K, 101.3 kPa, x1 = 0.2343	7.403
308 K, 101.3 kPa, x1 = 0.3348	11.49
308 K, 101.3 kPa, x1 = 0.4286	14.09
308 K, 101.3 kPa, x1 = 0.5274	12.37
308 K, 101.3 kPa, x1 = 0.6364	8.401
308 K, 101.3 kPa, x1 = 0.7447	5.506
308 K, 101.3 kPa, x1 = 0.8898	3.581
313 K, 101.3 kPa, x1 = 0.0761	2.998
313 K, 101.3 kPa, x1 = 0.1549	4.205
313 K, 101.3 kPa, x1 = 0.2343	6.048
313 K, 101.3 kPa, x1 = 0.3348	9.267
313 K, 101.3 kPa, x1 = 0.4286	11.03
313 K, 101.3 kPa, x1 = 0.5274	9.852
313 K, 101.3 kPa, x1 = 0.6364	7.017
313 K, 101.3 kPa, x1 = 0.7447	4.762
313 K, 101.3 kPa, x1 = 0.8898	3.171
313.15 K, 101 kPa, x2 = 0.1686	3.71
313.15 K, 101 kPa, x2 = 0.3263	6.35
313.15 K, 101 kPa, x2 = 0.4251	8.96
313.15 K, 101 kPa, x2 = 0.4893	10.47
313.15 K, 101 kPa, x2 = 0.5043	10.73
313.15 K, 101 kPa, x2 = 0.534	10.95
313.15 K, 101 kPa, x2 = 0.5506	10.98
313.15 K, 101 kPa, x2 = 0.5803	10.89
313.15 K, 101 kPa, x2 = 0.6353	10
313.15 K, 101 kPa, x2 = 0.7227	7.64
313.15 K, 101 kPa, x2 = 0.8671	4.33
318 K, 101.3 kPa, x1 = 0.0761	2.614
318 K, 101.3 kPa, x1 = 0.1549	3.59
318 K, 101.3 kPa, x1 = 0.2343	4.979
318 K, 101.3 kPa, x1 = 0.3348	7.306
318 K, 101.3 kPa, x1 = 0.4286	8.786
318 K, 101.3 kPa, x1 = 0.5274	7.927
318 K, 101.3 kPa, x1 = 0.6364	5.922
318 K, 101.3 kPa, x1 = 0.7447	4.17
318 K, 101.3 kPa, x1 = 0.8898	2.824

O=C([O-])[O-].[Na+].[Na+] + [2H]O[2H]
viscosity [mPa·s], 101 kPa
Settings	x1 = 0.009	x1 = 0.018	x1 = 0.031	x1 = 0.041
298.15 K	1.4	1.847	2.881	4.233
308.15 K	1.094	1.443	2.174	3.115
318.15 K	0.895	1.167	1.725	2.435
